Results as given in ChEMBL document CHEMBL4152250, “Antibacterial and anti-TB tat-peptidomimetics with improved efficacy and half-life” (Eur J Med Chem, 2018).
≈ marks a conversion by molar mass, not a printed value. Calls of active or inactive are those of the source. The calls are words filed in the database; no cut-off is given here.

Columns and labels:
Pseudomonas aeruginosa = assay: Antibacterial activity against Pseudomonas aeruginosa NCIM 2036 after 8 hrs by serial dilution method; format: functional, organism-based; conditions: NCIM 2036, 8 h
[1] = tested on: Staphylococcus epidermidis; assay: Antibacterial activity against Staphylococcus epidermidis NCIM 5270 after 12 hrs by serial dilution method; format: functional, organism-based; conditions: NCIM 5270, 12 h
Enterobacter sp. = assay: Antibacterial activity against Enterobacter sp. NCIM 5392 after 8 hrs by serial dilution method; format: functional, organism-based; conditions: NCIM 5392, 8 h
[2] = Drug degradation assessed as pepsin (unknown origin)-mediated compound hydrolysis by measuring remaining compound levels at 24 hrs by RP-HPLC method; format: ADME; conditions: human, read-out: Stability
Bacillus subtilis = assay: Antibacterial activity against Bacillus subtilis NCIM 2079 after 12 hrs by serial dilution method; format: functional, organism-based; conditions: NCIM 2079, 12 h
[3] = Drug degradation assessed as pepsin (unknown origin)-mediated compound hydrolysis by measuring remaining compound levels at 8 hrs by RP-HPLC method; format: ADME; conditions: human, read-out: Stability
Staphylococcus aureus [4] = assay: Antibacterial activity against Staphylococcus aureus NCIM 2010 after 12 hrs by serial dilution method; format: functional, organism-based; conditions: NCIM 2010, 12 h
[5] = Cytotoxicity against human HeLa cells assessed as cell viability at 1 to 10 uM after 24 hrs by MTT assay relative to control; format: cell-based; conditions: read-out: Activity
[6] = Drug degradation assessed as bovine pancreas chymotrypsin-mediated compound hydrolysis by measuring remaining compound levels at 10 mM measured at 24 hrs by RP-HPLC method; format: ADME, Bos taurus; conditions: cattle, read-out: Stability
[7] = Drug degradation assessed as bovine pancreas chymotrypsin-mediated compound hydrolysis by measuring remaining compound levels at 10 mM measured at 12 hrs by RP-HPLC method; format: ADME, Bos taurus; conditions: cattle, read-out: Stability
[8] = Drug degradation assessed as pepsin (unknown origin)-mediated compound hydrolysis by measuring remaining compound levels at 4 hrs by RP-HPLC method; format: ADME; conditions: human, read-out: Stability
[9] = tested on: Mycobacterium tuberculosis; assay: Antitubercular activity against dormant stage of Mycobacterium tuberculosis H37Ra ATCC 25177 after 12 days by XRMA; format: functional, organism-based; conditions: H37Ra ATCC 25177, 288 h
[10] = Drug degradation assessed as pepsin (unknown origin)-mediated compound hydrolysis by measuring remaining compound levels at 1 hr by RP-HPLC method; format: ADME; conditions: human, read-out: Stability
[11] = Drug degradation assessed as bovine pancreas chymotrypsin-mediated compound hydrolysis by measuring compound half life at 10 mM by RP-HPLC method; format: ADME, Bos taurus; conditions: cattle
[12] = Drug degradation assessed as bovine pancreas chymotrypsin-mediated compound hydrolysis by measuring remaining compound levels at 10 mM measured at 2 hrs by RP-HPLC method; format: ADME, Bos taurus; conditions: cattle, read-out: Stability
[13] = Drug degradation assessed as bovine pancreas chymotrypsin-mediated compound hydrolysis by measuring remaining compound levels at 10 mM measured at 18 hrs by RP-HPLC method; format: ADME, Bos taurus; conditions: cattle, read-out: Stability
[14] = Drug degradation assessed as pepsin (unknown origin)-mediated compound hydrolysis by measuring remaining compound levels at 12 hrs by RP-HPLC method; format: ADME; conditions: human, read-out: Stability
[15] = Drug degradation assessed as bovine pancreas chymotrypsin-mediated compound hydrolysis by measuring remaining compound levels at 10 mM measured at 8 hrs by RP-HPLC method; format: ADME, Bos taurus; conditions: cattle, read-out: Stability
[16] = Drug degradation assessed as pepsin (unknown origin)-mediated compound hydrolysis by measuring remaining compound levels at 2 hrs by RP-HPLC method; format: ADME; conditions: human, read-out: Stability
[17] = Drug degradation assessed as bovine pancreas chymotrypsin-mediated compound hydrolysis by measuring remaining compound levels at 10 mM measured at 1 hr by RP-HPLC method; format: ADME, Bos taurus; conditions: cattle, read-out: Stability
[18] = Drug degradation assessed as pepsin (unknown origin)-mediated compound hydrolysis by measuring remaining compound levels at 0.5 hrs by RP-HPLC method; format: ADME; conditions: human, read-out: Stability
[19] = Drug degradation assessed as bovine pancreas chymotrypsin-mediated compound hydrolysis by measuring remaining compound levels at 10 mM measured at 4 hrs by RP-HPLC method; format: ADME, Bos taurus; conditions: cattle, read-out: Stability
[20] = Drug degradation assessed as pepsin (unknown origin)-mediated compound hydrolysis by measuring remaining compound levels at 18 hrs by RP-HPLC method; format: ADME; conditions: human, read-out: Stability
Escherichia coli [21] = assay: Antibacterial activity against Escherichia coli NCIM 2688 after 8 hrs by serial dilution method; format: functional, organism-based; conditions: NCIM 2688, 8 h
[22] = Drug degradation assessed as bovine pancreas chymotrypsin-mediated compound hydrolysis by measuring remaining compound levels at 10 mM measured at 0.5 hrs by RP-HPLC method; format: ADME, Bos taurus; conditions: cattle, read-out: Stability
[23] = tested on: Mycobacterium tuberculosis; assay: Antitubercular activity against active stage of Mycobacterium tuberculosis H37Ra ATCC 25177 after 8 days by XRMA; format: functional, organism-based; conditions: H37Ra ATCC 25177, 192 h
[24] = tested on: Mycobacterium tuberculosis; assay: Disruption of cell wall in dormant stage of Mycobacterium tuberculosis H37Ra ATCC 25177 at MIC after 60 mins by transmission electron microscopic method; format: functional, organism-based
Erythrocyte = assay: Hemolytic activity in human RBC at 1 to 40 uM after 1 hr; format: ADME, cell-based
Staphylococcus aureus [25] = assay: Antibacterial activity against Staphylococcus aureus NCIM 2010 assessed as decrease in bacterial viability at 10 ug/ml after 4 hrs by SYTO9/propidium iodide staining-based fluorescence microscopic method; format: functional, organism-based
[26] = tested on: Mycobacterium tuberculosis; assay: Disruption of cell wall in active stage of Mycobacterium tuberculosis H37Ra ATCC 25177 at MIC after 60 mins by transmission electron microscopic method; format: functional, organism-based
Staphylococcus aureus [27] = assay: Disruption of cell wall in Staphylococcus aureus NCIM 2010 at MIC after 60 mins by transmission electron microscopic method; format: functional, organism-based
Escherichia coli [28] = assay: Disruption of cell wall in Escherichia coli NCIM 2688 at MIC after 60 mins by transmission electron microscopic method; format: functional, organism-based

Row | SMILES | IC50 (Pseudomonas aeruginosa) [µM] | MIC (Pseudomonas aeruginosa) [µM] | IC50 [1] [µM] | MIC [1] [µM] | IC50 (Enterobacter sp.) [µM] | MIC (Enterobacter sp.) [µM] | remaining at 24 h [2] [%] | IC50 (Bacillus subtilis) [µM] | MIC (Bacillus subtilis) [µM] | remaining at 8 h [3] [%] | IC50 (Staphylococcus aureus [4]) [µM] | MIC (Staphylococcus aureus [4]) [µM] | viability at 24 h, up to 10 µM [5] [%] | remaining at 24 h, 10000 µM [6] [%] | remaining at 12 h, 10000 µM [7] [%] | remaining at 4 h [8] [%] | IC50 [9] [µM] | remaining at 1 h [10] [%] | half-life at 10000 µM [11] [h] | remaining at 2 h, 10000 µM [12] [%] | other results
1 | CC(=O)N[C@@H](Cc1ccccc1)C(=O)NCC(=O)N[C@@H](CCCNC(=N)N)C(=O)N[C@@H](CCCCN)C(=O)N[C@@H](CCCCN)C(=O)N[C@@H](CCCNC(=N)N)C(=O)N[C@@H](CCCNC(=N)N)C(=O)N[C@@H](CCC(N)=O)C(=O)N[C@@H](CCCNC(=N)N)C(=O)N[C@@H](CCCNC(=N)N)C(=O)N[C@@H](CCCNC(=N)N)C(N)=O | 0.0265 | 7.46 (≈ 11.8 µg/mL) | 0.0069 | 5.78 (≈ 9.16 µg/mL) | 0.024 | 21.6 (≈ 34.2 µg/mL) | 80.6 | 0.012 | 3.34 (≈ 5.29 µg/mL) | 90.6 | 0.0113 | 9.91 (≈ 15.7 µg/mL) | ≥ 80 | 15.9 | 78.2 | 93 | 40 | 94.2 | 4 | 84.6 | remaining at 18 h, 10000 µM [13]: 75.1%; remaining at 12 h [14]: 89%; remaining at 8 h, 10000 µM [15]: 79.6%; remaining at 2 h [16]: 93.1%; remaining at 1 h, 10000 µM [17]: 86%; remaining at 0.5 h [18]: 94.6%; remaining at 4 h, 10000 µM [19]: 82.6%; remaining at 18 h [20]: 82.1%; IC50 (Escherichia coli [21]): 0.0101 µM; MIC (Escherichia coli [21]): 6.27 µM (≈ 9.94 µg/mL); remaining at 0.5 h, 10000 µM [22]: 86.7%; IC50 [23]: > 60 µM
2 | CC(=O)N[C@@H](Cc1ccccc1)C(=O)NCC(=O)N[C@H]1C[C@@H](C(=O)N[C@@H](CCCCN)C(=O)N[C@@H](CCCCN)C(=O)N[C@@H](CCCNC(=N)N)C(=O)N[C@H]2C[C@@H](C(=O)N[C@@H](CCC(N)=O)C(=O)N[C@H]3C[C@@H](C(=O)N[C@@H](CCCNC(=N)N)C(=O)N[C@H]4C[C@@H](C(=O)NCCC(N)=O)N(CCCNC(=N)N)C4)N(CCCNC(=N)N)C3)N(CCCNC(=N)N)C2)N(CCCNC(=N)N)C1 | 0.0042 | 0.61 (≈ 1.14 µg/mL) | 0.0042 | 1.12 (≈ 2.1 µg/mL) | 0.0042 | 1.35 (≈ 2.53 µg/mL) | 100 | 0.0037 | 0.71 (≈ 1.33 µg/mL) | 100 | 0.0064 | 1.26 (≈ 2.36 µg/mL) | ≥ 80 | 100 | 100 | 100 | 3.7 | 100 | 16 | 100 | Activity [24]: Active; MIC [9]: 36.3 µM (≈ 68.1 µg/mL); remaining at 18 h, 10000 µM [13]: 100%; Activity (Erythrocyte): Non-Toxic; remaining at 12 h [14]: 100%; remaining at 8 h, 10000 µM [15]: 100%; remaining at 2 h [16]: 100%; remaining at 1 h, 10000 µM [17]: 100%; remaining at 0.5 h [18]: 100%; Activity (Staphylococcus aureus [25]): Active; remaining at 4 h, 10000 µM [19]: 100%; remaining at 18 h [20]: 100%; IC50 (Escherichia coli [21]): 0.0053 µM; MIC (Escherichia coli [21]): 1.12 µM (≈ 2.1 µg/mL); Activity [26]: Active; Activity (Staphylococcus aureus [27]): Active; remaining at 0.5 h, 10000 µM [22]: 100%; Activity (Escherichia coli [28]): Active; IC50 [23]: 6.2 µM; MIC [23]: 43.9 µM (≈ 82.4 µg/mL)
